pKi: −log10 of the molar value. Where two headings read alike, the source gives them in different places.

As usually defined, the pKi is the Ki on a negative log10 scale, so that one unit is a factor of ten.

This assay has as its target human RIP1 kinase domain (2-375) (Homo sapiens (Human), UniProt Q13546). As to the kind of experiment: RIP1 kinase inhibition assay (biochemical, Transcreener ADP assay). As to conditions: tight-binding apparent inhibition constant (Ki app, Morrison equation), 50 nM enzyme, 50 uM ATP, 2 hours incubation, fluorescence polarization. As for the experimental part: Example 45: RIP1 Kinase Inhibition Assays (Biochemical Assay)
The compounds of the present invention were tested for their capacity to inhibit RIP1K activity as described below.
The ability of the receptor interacting protein kinase (RIPK1) to catalyze the hydrolysis of adenosine-5′-triphosphate (ATP) is monitored using the Transcreener ADP (adenosine-5′-diphosphate) assay (BellBrook Labs). Purified human RIP1 kinase domain (2-375) (50 nM) derived from a baculovirus-infected insect cell expression system is incubated with test compounds for 2 hours in 50 mM Hepes buffer (pH 7.5) containing 30 mM MgCl2, 1 mM dithiothreitol, 50 uM ATP, 0.002% Brij-35, and 0.5% dimethyl sulfoxide (DMSO). Reactions are quenched by the addition of 1× Bell Brooks Stop buffer B (20 mM Hepes (ph 7.5), 40 mM ethylenediaminetetraacetic acid and 0.02% Brij-35) containing an additional 12 mM EDTA and 55 ug/mL ADP2 antibody and 4 nM ADP-AlexaFluor® 633 tracer. The tracer bound to the antibody is displaced by the ADP generated during the RIP1K reaction, which causes a decrease in fluorescence polarization that is measured by laser excitation at 633 nm with a FP microplate reader M1000. Fractional activity was plotted against test article concentration. Using Genedata Screener software (Genedata; Basel, Switzerland), the data were fit to the tight-binding apparent inhibition constant (Ki^app) Morrison equation [Williams, J. W. and Morrison, J. F. (1979) The kinetics of reversible tight-binding inhibition. Methods Enzymol 63: 437-67]. The following equation was used to calculate fractional activity and Ki^app: […]
where [E]T and [I]T are the total concentrations of active enzyme and test article, respectively. […]
On the technique in general: In fluorescence polarisation assays a small probe gives low polarisation when free and higher when bound to something large.

human RIP1 kinase domain (2-375), sequence (Q13546 2-375): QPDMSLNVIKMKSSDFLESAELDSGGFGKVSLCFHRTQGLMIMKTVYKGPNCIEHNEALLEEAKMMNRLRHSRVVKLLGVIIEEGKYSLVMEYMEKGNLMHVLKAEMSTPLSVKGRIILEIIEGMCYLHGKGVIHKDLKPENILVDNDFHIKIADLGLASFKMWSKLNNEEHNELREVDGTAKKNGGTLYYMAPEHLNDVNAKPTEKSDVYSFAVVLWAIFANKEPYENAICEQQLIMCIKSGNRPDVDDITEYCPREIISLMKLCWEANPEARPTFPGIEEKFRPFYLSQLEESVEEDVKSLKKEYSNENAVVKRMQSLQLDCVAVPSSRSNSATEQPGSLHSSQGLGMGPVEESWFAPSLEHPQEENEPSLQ

For the molecule `CN1C(=O)[C@@H](NC(=O)c2nc3n(n2)[C@H](c2ccccc2)C[C@@H]3F)CCn2nccc21` (mixture of isomers) [Example #29, Rac-(5S,7S)-7-fluoro-5-phenyl-N-[(6S)-4-methyl-5-oxo-7,8-dihydro-6H-pyrazolo[1,5-a][1,3]diazepin-6-yl]-6,7-dihydro-5H-pyrrolo[1,2-b][1,2,4]triazole-2-carboxamide], the pKi (RIP1 Ki) was 7.37.
The same measure, in the same setting: with `O=C(N[C@H]1CCc2cc(F)cc(F)c2NC1=O)c1nc2n(n1)[C@@H](c1ccccc1)C[C@@H]2F` (mixture of isomers) [Example #31, Rac-(5R,7S)-7-fluoro-5-phenyl-N-[(3S)-7,9-difluoro-2-oxo-1,3,4,5-tetrahydro-1-benzazepin-3-yl]-6,7-dihydro-5H-pyrrolo[1,2-b][1,2,4]triazole-2-carboxamide] the figure was 7.82.
Still for that read-out and setting: with `CN1C(=O)[C@@H](NC(=O)c2nc3n(n2)[C@@H](c2ccccc2)C[C@@H]3F)COc2ccccc21` (mixture of isomers) [Example #32, rac-(5R,7S)-7-fluoro-5-phenyl-N-[(3S)-5-methyl-4-oxo-2,3-dihydro-1,5-benzoxazepin-3-yl]-6,7-dihydro-5H-pyrrolo[1,2-b][1,2,4]triazole-2-carboxamide] the figure was 7.85; with `CN1C(=O)[C@@H](NC(=O)c2nc3n(n2)[C@H](c2ccccc2)C[C@@H]3F)CCn2nccc21` (racemic) [Example #38, rac-(5S,7S)-7-fluoro-5-phenyl-N-[rac-(6S)-4-methyl-5-oxo-7,8-dihydro-6H-pyrazolo[1,5-a][1,3]diazepin-6-yl]-6,7-dihydro-5H-pyrrolo[1,2-b][1,2,4]triazole-2-carboxamide], 7.62.
On the same count and under the same terms, as for `Cc1cc2n(n1)CC[C@H](NC(=O)c1nc3n(n1)[C@H](c1ccccc1)C[C@@H]3F)C(=O)N2C` (racemic) [Example #39, rac-(5S,7S)-7-fluoro-5-phenyl-N-[rac-(6S)-2,4-dimethyl-5-oxo-7,8-dihydro-6H-pyrazolo[1,5-a][1,3]diazepin-6-yl]-6,7-dihydro-5H-pyrrolo[1,2-b][1,2,4]triazole-2-carboxamide], the figure is 7.57; as for `Cc1cc2n(n1)CC[C@H](NC(=O)c1nc3n(n1)[C@@H](c1ccccc1)CC3(F)F)C(=O)N2C` (racemic) [Example #41, rac-(5R)-7,7-difluoro-5-phenyl-N-[rac-(6S)-2,4-dimethyl-5-oxo-7,8-dihydro-6H-pyrazolo[1,5-a][1,3]diazepin-6-yl]-5,6-dihydropyrrolo[1,2-b][1,2,4]triazole-2-carboxamide], 7.46; as for `CN1C(=O)[C@@H](NC(=O)c2nc3n(n2)[C@@H](c2ccccc2)CC3(F)F)COc2ccccc21` (racemic) [Example #42, rac-(5R)-7,7-difluoro-5-phenyl-N-[rac-(3S)-5-methyl-4-oxo-2,3-dihydro-1,5-benzoxazepin-3-yl]-5,6-dihydropyrrolo[1,2-b][1,2,4]triazole-2-carboxamide], 8.30.
Regarding `CN1C(=O)[C@@H](NC(=O)c2nc3n(n2)[C@@H](c2ccccc2)CC3(F)F)CCn2nccc21` (racemic) [Example #43, rac-(5R)-7,7-difluoro-5-phenyl-N-[rac-(6S)-4-methyl-5-oxo-7,8-dihydro-6H-pyrazolo[1,5-a][1,3]diazepin-6-yl]-5,6-dihydropyrrolo[1,2-b][1,2,4]triazole-2-carboxamide], the pKi (RIP1 Ki) is 7.55.
Turning to `CN1C(=O)[C@@H](NC(=O)c2nc3n(n2)CC[C@H]3c2ccccc2F)CCn2nccc21` (single isomer, unassigned) [Example #7], the pKi (read-out: RIP1 Ki) is 7.66.
On the same count and under the same terms, as for `Cc1cc2n(n1)CC[C@H](NC(=O)c1nc3n(n1)CC[C@H]3c1ccccc1F)C(=O)N2C` (single isomer, unassigned) [Example #8], the figure is 7.74.
Still for that read-out and setting: as for `COc1cc2c(cn1)N(C)C(=O)[C@@H](NC(=O)c1nc3n(n1)[C@H](c1ccccc1F)CC3)CC2` (single isomer, unassigned) [Example #11], the figure is 7.96.
On the same count and under the same terms, as for `O=C(N[C@H]1CCc2ncccc2NC1=O)c1nc2n(n1)[C@@H](c1ccccc1)CC2` (single isomer, unassigned) [Example #13], the figure is 7.39; as for `O=C(N[C@H]1CCc2ncccc2NC1=O)c1nc2n(n1)[C@H](c1ccccc1F)CC2` (single isomer, unassigned) [Example #14], 7.72.
As for `CN1C(=O)[C@@H](NC(=O)c2nc3n(n2)CC[C@H]3c2ccccc2F)CCc2ncccc21` (single isomer, unassigned) [Example #15], the pKi (read-out: RIP1 Ki) is 7.38.
The same measure, in the same setting: as for `CN1C(=O)[C@@H](NC(=O)c2nc3n(n2)[C@@H](c2ccccc2F)CC3)CCc2ncccc21` (single isomer, unassigned) [Example #16], the figure is 7.54.
With `CN1C(=O)[C@@H](NC(=O)c2nc3n(n2)CC[C@H]3c2ccccc2)CCc2ncccc21` (single isomer, unassigned) [Example #17], the pKi (read-out: RIP1 Ki) was 7.43.
The same measure, in the same setting: as for `CN1C(=O)[C@@H](NC(=O)c2nc3n(n2)[C@H](c2ccccc2)CC3)CCc2ncccc21` (single isomer, unassigned) [Example #18], the figure is 7.36.
As for `CN1C(=O)[C@@H](NC(=O)c2ncn(Cc3ccccc3)n2)CCc2nn(C)cc21` (single isomer, unassigned) [Example #20], the pKi (read-out: RIP1 Ki) is 7.34.
Same read-out and setting: as for `CN1C(=O)[C@@H](NC(=O)c2ncn(Cc3ccccc3F)n2)CCc2nn(C)cc21` (single isomer, unassigned) [Example #21], the figure is 7.59.
Same read-out and setting: as for `CN1C(=O)[C@@H](NC(=O)c2ncn(Cc3ccccc3)n2)CCc2c1cnn2C` (single isomer, unassigned) [Example #22], the figure is 7.85; as for `CN1C(=O)[C@@H](NC(=O)c2ncn(Cc3ccccc3F)n2)CCc2c1cnn2C` (single isomer, unassigned) [Example #23], 7.89.
Take `CN1C(=O)[C@@H](NC(=O)c2nc3n(n2)[C@H](c2ccccc2)C[C@@H]3F)COc2ccccc21` (single isomer, unassigned) [Example #30]: the pKi (RIP1 Ki) is 7.74.
As to `O=C(N[C@H]1CCc2cc(F)cc(F)c2NC1=O)c1nc2n(n1)[C@@H](c1ccccc1)C[C@H]2F` (single isomer, unassigned) [Example #33], the pKi (read-out: RIP1 Ki) is 7.89.
The same measure, in the same setting: as for `O=C(N[C@H]1CCc2cc(F)cc(F)c2NC1=O)c1nc2n(n1)[C@H](c1ccccc1)C[C@H]2F` (single isomer, unassigned) [Example #34], the figure is 7.51; as for `CN1C(=O)[C@@H](NC(=O)c2nc3n(n2)[C@H](c2ccccc2)C[C@H]3F)COc2ccccc21` (single isomer, unassigned) [Example #35], 7.82.
The same measure, in the same setting: with `CN1C(=O)[C@@H](NC(=O)c2nc3n(n2)[C@@H](c2ccccc2)C[C@@H]3F)CCn2nccc21` (single isomer, unassigned) [Example #36] the figure was 7.49.
For `Cc1cc2n(n1)CC[C@H](NC(=O)c1nc3n(n1)[C@@H](c1ccccc1)C[C@@H]3F)C(=O)N2C` (single isomer, unassigned) [Example #37], the pKi (read-out: RIP1 Ki) is 7.52.
As for `CN1C(=O)[C@@H](NC(=O)c2nc3n(n2)[C@H](c2ccccc2)C[C@@H]3F)COc2ccccc21` (single isomer, unassigned) [Example #40], the pKi (RIP1 Ki) was 8.30.
As to `CCC(F)(F)[C@@H]1CCc2nc(C(=O)N[C@H]3COc4ccccc4N(C)C3=O)nn21` (single isomer, unassigned) [Example #44], the pKi (read-out: RIP1 Ki) was 8.15.
The same measure, in the same setting: as for `CN1C(=O)[C@@H](NC(=O)c2cc3c(cn2)cnn3CC(C)(F)F)COc2ccccc21` [Example #2, 1-(2,2-difluoropropyl)-N-[(3S)-5-methyl-4-oxo-2,3-dihydro-1,5-benzoxazepin-3-yl]pyrazolo[4,3-c]pyridine-6-carboxamide], the figure is 7.54.
On the same count and under the same terms, with `CN1C(=O)[C@@H](NC(=O)c2ncc3cnn(CC(C)(F)F)c3n2)COc2ccccc21` [Example #3, 1-(2,2-difluoropropyl)-N-[(3S)-5-methyl-4-oxo-2,3-dihydro-1,5-benzoxazepin-3-yl]pyrazolo[3,4-d]pyrimidine-6-carboxamide] the figure was 7.46; with `CN1C(=O)[C@@H](NC(=O)c2ncc3cnn(C4CC4)c3n2)COc2ccccc21` [Example #4, 1-cyclopropyl-N-[(3S)-5-methyl-4-oxo-2,3-dihydro-1,5-benzoxazepin-3-yl]pyrazolo[3,4-d]pyrimidine-6-carboxamide], 7.66.
Still for that read-out and setting: as for `O=C(N[C@H]1CCc2cc(F)cc(F)c2NC1=O)c1cc2n(n1)CCOC2c1ccccc1` (stereo partly drawn) [Example #5, 4-phenyl-N-[(3S)-7,9-difluoro-2-oxo-1,3,4,5-tetrahydro-1-benzazepin-3-yl]-6,7-dihydro-4H-pyrazolo[5,1-c][1,4]oxazine-2-carboxamide], the figure is 7.96.

These data come from US11072607B2, “Inhibitors of RIP1 kinase and methods of use thereof” (priority 2016, dated 2021).
